Source: patent US7288535B2, “Methods and compositions for stimulating bone growth using nitric oxide releasing bisphosphonate conjugates” (OsteoScreen, Inc., priority 2002, dated 2007)
Like-named read-outs stand apart in the source and are kept apart here. Marks after values point to notes of the source that are not given here.

Columns and labels:
[1] = system: Neonatal Murine Calvariae; settings: mean ± standard error (n=5)
Description: (§1) An assay for bone resorption or bone formation is similar to that described by Gowen M. & Mundy G., J Immunol (1986) 136:2478-82. Briefly, four days after birth, the front and parietal bones of ICR Swiss white mouse pups are removed by microdissection and split along the sagittal suture. […] The medium used when the assay is conducted to assess bone formation is Fitton and Jackson Modified BGJ Medium (Sigma) supplemented with 6 ug/ml insulin, 6 ug/ml transferrin, 6 ng/ml selenous acid, calcium and phosphate concentrations of 1.25 and 3.0 mM, respectively, and ascorbic acid to a concentration of 100 ug/ml is added every two days. The incubation is conducted at 37° C. in a humidified atmosphere of 5% CO2 and 95% air for 96 hours.
The bones are removed from the incubation media and fixed in 10% buffered formalin for 24-48 hours, decalcified in 14% EDTA for 1 week, processed through graded alcohols; and embedded in paraffin wax. Three μm sections of the calvaria are prepared. Representative sections are selected for histomorphometric assessment of bone formation or bone resorption. Bone changes are measured on sections cut 200 μm apart. Osteoblasts and osteoclasts are identified by their distinctive morphology.
Selected compounds and appropriate controls were assayed in vitro (ex vivo) for bone formation activity (described above in “Techniques for Neonatal Mouse Calvaria Assay (in vitro)). Histomorphometrical assessments of ex vivo calvaria were carried out using an OsteoMetrics bone morphometry measurement program, according to the manufacturer's instructions. Measurements were determined using either a 10- or 20-fold objective with a standard point counting eyepiece graticule.
New bone formation was determined (using a 20× objective) by measuring the new bone area formed in one field in 3 representative sections of each bone (4 bones per group). Each measurement was carried out ½ field distance from the end of the suture. Both total bone and old bone area were measured. Data were expressed as new bone width in mm.
Osteoblast numbers are determined by point counting. The number of osteoblast cells lining the bone surface on both sides of the bone are counted in one field using a 20× objective. Data are expressed as osteoblast numbers/mm of bone surface.

[2] = system: neonatal murine calvarial incubation media; settings: mean ± standard error (n=5)
Description: as §1
These neonatal murine calvaria do contain measurable levels of alkaline phosphatase and this can be measured either from the calvaria itself or to some degree in the incubation media as a semi-quantitative measurement of bone formation activity. For measurement of alkaline phosphatase activity in the media, 50 ul is removed at the end of the assay. The activity is then measured using standard alkaline phosphatase reagents.
Alkaline phosphatase activity is measured in the incubation media as detailed described above in “Techniques for Neonatal Mouse Calvaria Assay (in vitro)).

human stomach = settings: healthy volunteers, doses prescribed for osteoporosis and Pagets disease of bone; cited from earlier work

Structure (SMILES)	Cell Number/0.3 mm bone ([1]; 0.1 uM)	New Bone Area ([1]; 0.1 uM)	Cell Number/0.3 mm bone ([1]; 1 uM)	New Bone Area ([1]; 1 uM)	Cell Number/0.3 mm bone ([1]; 10 uM)	New Bone Area ([1]; 10 uM)	Cell Number/0.3 mm bone ([1]; 100 uM)	New Bone Area ([1]; 100 uM)	Alkaline Phosphatase OD ([2]; 0.1 uM)	Alkaline Phosphatase OD ([2]; 1 uM)	Alkaline Phosphatase OD ([2]; 10 uM)	Alkaline Phosphatase OD ([2]; 100 uM)	injury to the stomach (human stomach)
NCCCC(O)(P(=O)(O)O)P(=O)(O)O [Alendronate, (4-animo-1-hydroxybutylidene)bis-phosphonate]	98± 6 /0.3 mm bone	2.9 ± 0.1 mm^2 × 10^−3	103± 4 /0.3 mm bone	3.2 ± 0.5 mm^2 × 10^−3	101± 5 /0.3 mm bone	2.7 ± 0.2 mm^2 × 10^−3	97± 3 /0.3 mm bone	3.1 ± 0.3 mm^2 × 10^−3	0.030 ± 0.009 OD	0.031 ± 0.010 OD	0.034 ± 0.001 OD	0.038 ± 0.003 OD	cause erosions and ulcers in the human stomach
O=C(NCCCC(O)(P(=O)(O)O)P(=O)(O)O)c1ccc(CO[N+](=O)[O-])cc1 [NOX-Alendronate, [4-(4′-nitrooxymethyl)benzoylamino-1-hydroxybutylidene]-bis-phosphonate]	104 ± 8 /0.3 mm bone	3.6 ± 0.6 mm^2 × 10^−3	115 ± 5 /0.3 mm bone	4.2 ± 0.4 mm^2 × 10^−3	132 ± 5 /0.3 mm bone	6.7 ± 0.7* mm^2 × 10^−3	124 ± 2 /0.3 mm bone	5.4 ± 0.3* mm^2 × 10^−3	0.029 ± 0.007 OD	0.023 ± 0.001 OD	0.053 ± 0.007 OD	0.072 ± 0.003 OD	–
